# Values of other authors, collected in patent publication US20120101124A1, “1,2,4-OXADIAZOL DERIVATIVES, THEIR PHARMACEUTICAL COMPOSITIONS AND THEIR USE AS SPHINGOSINE 1-PHOSPHATE 1 RECEPTOR AGONISTS” (GLAXO GROUP LIMITED, priority 2009, published 2012).
# Key:
# circulating lymphocytes = conditions: animals and man
# [1] = clinical studies
structure (smiles),measurement,setting,value
CCCCCCCCc1ccc(CCC(N)(CO)CO)cc1 [FTY720],effect on circulating lymphocytes,circulating lymphocytes,reduce circulating lymphocytes in animals and man
same,bradycardia on treatment,[1],bradycardia in the first 24 hours of treatment
